In the series the test system is zebrafish. As to the kind of experiment: PBTK parameter fitting (Nelder–Mead algorithm) to in vivo zebrafish data. The arrangement: species or system zebrafish (Danio rerio). The settings on record: fitted on brain BPZ concentrations of current study; used for all bisphenols.

Structures are written as SMILES.

Description: Ovaries and eggs were assumed to receive the same blood flow. The equation for the egg compartment was described as follows using the diffusion-limited equation previously described by Thompson and Beard[51] [drawing 4] 4 where dAegg/dt represents the rate of change of bisphenol over time in the egg compartment, Agon and Aegg represent the amount of compound in the gonads and egg, respectively, Vgon and Vegg are the volumes of the gonads and eggs, respectively, and Pgon and Pegg are the partition coefficients of the gonads to blood and egg to gonads.
Parameter fitting was done in R using the modFit function in the FME package with the Nelder–Mead algorithm.[53]
279For fitting, the model was run using the exposure scenarios of each fitting data set.
280parameters were fixed as presented in Tables S10-S14 with exception of the parameter for
281which fitting was performed. The outcome evaluated by fitting algorithm was the concentration
282over time in the same tissue as the experimental data. Outcomes used for fitting to measured
283experimental data were: concentration in brain for brain-blood partition coefficient,
284concentration in liver for liver-blood partition coefficient, concentration in eggs for egg-gonad
285partition coefficient and whole-body metabolite concentration for Ke bile and KBG of metabolites.
286For the liver, brain and egg partitioning, the range was set between 0.01 and 500 and the Nelder-
287Mead algorithm was run with initial estimates at 1, 5, 10, 50 and 500 in order to assure a global
288minimum was found. The fitted values returning the lowest squared sum of residuals were used
The GI lumen to GI tract diffusion rate (K u)

`Oc1ccc(C2(c3ccc(O)cc3)CCCCC2)cc1` [BPZ, bisphenol Z]: the “Pbb (brain to blood partition coefficient)” value is on record as 0.42.

The values above are taken from paper PMC9301920, “Physiologically Based Toxicokinetic Modeling of Bisphenols in Zebrafish (Danio rerio) Accounting for Variations in Metabolic Rates, Brain Distribution, and Liver Accumulation” (Environmental Science & Technology, 2022).
